{
  "source": "patent US10555528B1",
  "about": "“Herbicidal composition and method for controlling weeds” (SUMITOMO CHEMICAL COMPANY, LIMITED, priority 2019, dated 2020)",
  "key": {"corn plant": {"tested_on": "corn plant", "assay": "Spot-on crop injury test on corn leaf", "type": "in vivo", "conditions": "corn at 2.5-leaf stage, 2 micro liter droplet spotted on 2nd leaf; glufosinate-ammonium 40,000 ng/plant, PPO inhibitor none or 20 ng/plant (weight ratio 1/2,000); visually estimated 3 days after treatment, % of total area of treated leaf", "description": "3 days after the spot-on treatments, the injured area of the treated leaf was visually estimated as a percentage on the total area of the treated leaf."}, "soybean plant": {"tested_on": "soybean plant", "assay": "Spot-on crop injury test on soybean leaf", "type": "in vivo", "conditions": "soybean at 2 trifoliate leaf stage, 2 micro liter droplet spotted on 2nd trifoliate leaf; glufosinate-ammonium 400,000 ng/plant, PPO inhibitor none or 0.2 ng/plant (weight ratio 1/2,000,000); visually estimated 6 days after treatment, % of total area of treated leaf", "description": "One droplet having 2 micro liter of a commercial formulation of glufosinate-ammonium (manufactured by Bayer Cropscience KK under the trade name of Basta) having 200,000 ppm (200 g/L) of glufosinate-ammonium was spotted on the 2nd trifoliate leaf of a soybean plant at the stage of 2 trifoliate leaf.\n6 days after the spot-on treatments, the injured area of the treated leaf was visually estimated as a percentage on the total area of the treated leaf."}},
  "data": [
    {"molecule": "CP(=O)(O)CCC(N)C(=O)O", "note": "(centres unmarked) [Glufosinate-ammonium, glufosinate-ammonium]", "values": [
      {"measurement": "Injured leaf area", "setting": "corn plant", "value": 60, "unit": "%"},
      {"measurement": "Injured leaf area", "setting": "soybean plant", "value": 70, "unit": "%"}
    ]}
  ]
}
